Results on three molecules are retold here after patent US20010018073A1, “Transdermal compositions with enhanced skin penetration properties” (JENAPHARM GMBH & CO., KG, priority 1997, published 2001).

For series [1] the following is noted: substance on its own versus ANP employed as accelerant; cited from earlier work.
Series [2] in a line: T2 relaxation times of destructuring and structuring agents in water. The note with it: solute in water, concentration 0.5 mol/l. The series is classed as physicochemical.

With `O=[N+]([O-])O[C@H]1CO[C@H]2[C@@H]1OC[C@H]2O[N+](=O)[O-]` [ISDN, isosorbide dinitrate], in series [1], the “permeation through the skin relative to ANP” value is on record as 10 factor. Regarding `OC[C@H]1O[C@@](CO)(O[C@H]2O[C@H](CO)[C@@H](O)[C@H](O)[C@H]2O)[C@@H](O)[C@@H]1O` [Sucrose], the T2 relaxation time in series [2] stood at 18.7 ms. `NC(N)=O` [Urea]: in series [2], the T2 relaxation time came to 145 ms.
